# According to patent US10718029B2, “Treatment targeting oncology and neurodegeneration” (priority 2008, dated 2020):
# Read-outs that look alike come from different tables or passages of the source.
# Key:
# [1] = tested on: LIV21; assay: Cell fractionation, LIV21 expression profile in cytoplasm and nuclear fraction; type: cell-based, human; details: cultures treated with peptide at 2 μM compared with TPA-treated cultures
# From the text: The study of the specific role of the PKC epsilon on the nuclear translocation of Liv 21F can use a peptide which inhibits function PKC epsilon and the translocation like previously described but also according to the protocol of reference of Si RNA of PKC epsilon. The profile of expression observed corresponds to a doublet of tapes in the cytoplasm with approximately 51 KD (and with a tape of 64 kD according to the siRNA used) whereas it corresponds only to one simple tape with 50 kD in the nuclear fraction.
# [2] = target: T1, PKC (Homo sapiens, UniProt Q02156); details: PKC-specific inhibitory peptide; cited from earlier work
# T1 construct: endogenous in cells; host or cells: MCF-7
# T1 sequence (Q02156 1-737): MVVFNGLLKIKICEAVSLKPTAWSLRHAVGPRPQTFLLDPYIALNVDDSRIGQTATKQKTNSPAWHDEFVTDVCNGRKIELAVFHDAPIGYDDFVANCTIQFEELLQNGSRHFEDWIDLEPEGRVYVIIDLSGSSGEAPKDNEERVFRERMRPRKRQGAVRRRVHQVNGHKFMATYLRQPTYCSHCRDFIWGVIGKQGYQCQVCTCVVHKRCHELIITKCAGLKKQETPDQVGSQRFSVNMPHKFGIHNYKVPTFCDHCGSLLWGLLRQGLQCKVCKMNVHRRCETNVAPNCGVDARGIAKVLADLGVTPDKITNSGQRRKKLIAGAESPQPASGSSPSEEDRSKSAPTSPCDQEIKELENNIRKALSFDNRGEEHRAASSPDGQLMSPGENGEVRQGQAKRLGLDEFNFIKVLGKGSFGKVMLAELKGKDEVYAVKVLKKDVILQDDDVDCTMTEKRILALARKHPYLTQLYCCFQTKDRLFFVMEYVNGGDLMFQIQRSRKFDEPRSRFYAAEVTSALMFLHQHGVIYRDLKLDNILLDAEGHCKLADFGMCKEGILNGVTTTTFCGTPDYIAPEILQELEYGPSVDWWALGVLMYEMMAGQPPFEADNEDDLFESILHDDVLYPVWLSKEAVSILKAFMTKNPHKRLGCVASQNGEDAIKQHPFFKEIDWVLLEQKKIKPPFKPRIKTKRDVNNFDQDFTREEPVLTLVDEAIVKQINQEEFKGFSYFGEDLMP
# [3] = tested on: LIV21; assay: Immunocytochemistry of the nuclear translocation of LIV21; type: cell-based, human; details: peptide 2 μM, 12 h, compared with TPA 25 nM
# From the text: To determine the specific action of PKCε on the translocation of LIV21, the crops were discussed with a peptide, selective antagonist of the function and translocation of this PKC (EAVSLKPT (SEQ ID No 6), and the results were compared with those obtained by processing with TP A. This peptide is recognized by the enzyme and links themselves as a substrate amended to the level of its catalytic site. Not phosphorylable, he acts as a specific inhibitor of the activity of PKCε.
# The effect of the selective inhibition of the activity of PKCε on the nuclear translocation of LIV21 was studied by immunocytochemistry.
# [4] = tested on: estrogen receptors (ERs); details: MCF-7 cells, background statement; cited from earlier work
# [5] = tested on: cells of benign tumors; details: background statement; cited from earlier work
# [6] = tested on: LIV21; assay: Fluorescence localization of LIV21 in nuclei during TPA treatment; type: cell-based, human; details: TPA 25 nM, after 12 h
# Experimental: (§1) During this TPA treatment (25 nM), when E2F4, p130 and LIV21 were studied (green fluorescence) in the nuclei labelled (DNA) with propidium iodide (red fluorescence), the following were observed: […]
# [7] = target: T2, PKCε (Homo sapiens, UniProt Q02156); assay: Western blotting of PKCε expression as a function of the duration of TPA treatment; type: cell-based; details: MCF-7 cells
# T2 construct: endogenous in cells; host or cells: MCF-7
# T2 sequence (Q02156 1-737): T1 sequence (Q02156 1-737)
# From the text: (§2) Western blotting study: Given that the protein sequence of LIV21 has putative PKCε phosphorylation sites, including two specific for PKCε, the inventor tested the variation in the expression of this PKC as a function of the duration of TPA treatment. […] The expression of PKCzeta (PKCζ) is used as an internal control since it is not sensitive to TPA.
# [8] = tested on: MCF-7 line; details: cited from earlier work
# [9] = tested on: E2F4; assay: Fluorescence localization of E2F4 in nuclei during TPA treatment; type: cell-based, human; details: TPA 25 nM
# Experimental: as §1
# [10] = tested on: p130; assay: Fluorescence localization of p130 in nuclei during TPA treatment; type: cell-based, human; details: TPA 25 nM, after 12 h
# Experimental: as §1
# [11] = tested on: normal breast cells; details: background statement; cited from earlier work
# [12] = tested on: protein kinases C (PKCs); details: MCF-7 cells, background statement; cited from earlier work
# [13] = tested on: LIV21; details: TPA-treated MCF-7 lines; cited from earlier work
# [14] = tested on: MCF-7 cells; details: background statement; cited from earlier work
# [15] = tested on: PKCzeta (PKCζ); assay: Western blotting of PKCzeta expression (internal control) under TPA treatment; type: cell-based, human
# From the text: as §2
# [16] = tested on: TGF Béta; details: publication of Lecanda and Gold, March 2009; cited from earlier work
Molecule,LIV21 expression profile [1],PKC activity versus expression [2],nuclear translocation of LIV21 [3],expression and function of estrogen receptors (ERs) [4],proliferation of the cells of benign tumors [5],LIV21 localization [6],PKCε expression [7],cancerous proliferation ([8]; TPA-treated MCF-7 lines),cell differentiation ([8]; TPA-treated MCF-7 lines),proliferation of the cells of human mammary tumor lines such as the MCF-7 line ([8]; background statement),E2F4 localization ([9]; after 12 h),E2F4 localization ([9]; after 48 h),E2F4 localization ([9]; at 72 h),p130 localization [10],growth of normal breast cells [11],translocation of protein kinases C (PKCs) from the cytosol to the membranes [12],LIV21 localization [13],migratory capacity of MCF-7 cells in vitro [14],expression of PKCzeta (PKCζ) [15],TGF Béta events (increase and nuclear accumulation of p27 via smad 2 and smad 3) [16]
EAVSLKPT [PKC inhibiting peptide],doublet in the cytoplasm and of a single band in the nuclear fraction,it was the activity and not the expression of PKC which was inhibited,effect identical to that of TPA,–,–,–,–,–,–,–,–,–,–,–,–,–,–,–,–,–
"CCCCCCCCCCCCCC(=O)O[C@@H]1[C@@H](C)[C@@]2(O)[C@@H](C=C(CO)C[C@]3(O)C(=O)C(C)=C[C@@H]23)[C@H]2C(C)(C)[C@]12OC(C)=O [TPA, 12-0-tetradecanoyl phorbol-13-10 sumoate]",doublet in the cytoplasm and of a single band in the nuclear fraction,–,–,greatly and rapidly inhibits,does not modify the proliferation,intranuclear green fluorescence signals,decreases from 30 min,inhibition of cancerous proliferation,cell differentiation,drastically inhibits the proliferation,intranuclear green fluorescence signals,comparable localization,disappears from the nucleus,intranuclear green fluorescence signals,activates the growth,induces the time- and dose-dependent translocation,translocated into the nucleus,increases the migratory capacity,not sensitive,–
Fc1ccc(Cl)cc1-c1nc(Nc2ccncc2)c2nccnc2n1 [SD208],–,–,–,–,–,–,–,–,–,–,–,–,–,–,–,–,–,–,–,All these events are locked
